We go through four compounds from ChEMBL document CHEMBL4219105, “Novel polyamine-based Histone deacetylases-Lysine demethylase 1 dual binding inhibitors” (Bioorg Med Chem Lett, 2018).

pIC50, pKi: −log10 of the molar value.

Assay [1] has as its system MCF7. Description: Cytotoxic activity against human MCF7 cells assessed as reduction in cell viability at 70 uM after 24 hrs by MTT assay relative to control. In kind it is functional.
The subject of assay [2] is MCF7. Nature of the assay: Cytotoxic activity against human MCF7 cells assessed as reduction in cell viability at 4 uM after 24 hrs by MTT assay relative to control. In kind it is functional.
Assay [3] deals with MCF7. Description: Cytotoxic activity against human MCF7 cells assessed as reduction in cell viability at 16 uM after 24 hrs by MTT assay relative to control. In kind it is functional. (In general: Tetrazolium dyes change colour on reduction, which living cells bring about.)
Assay [4] relates to MCF7. Description: Cytotoxic activity against human MCF7 cells assessed as reduction in cell viability at 35 uM after 24 hrs by MTT assay relative to control. In kind it is functional.
Assay [5] deals with T1, HDAC1/REST corepressor 3 (Homo sapiens, UniProt Q13547+Q9P2K3).
Description: (§1) Inhibition of HDAC1/CoREST3 in HEK293 whole cell extract using fluorescent acetylated histone peptide as substrate after 60 mins by fluorescence based assay
Assay [6] deals with T2, Lysine-specific histone demethylase 1A/REST corepressor (Homo sapiens, UniProt O60341+Q9P2K3).
Description: (§2) Inhibition of human recombinant LSD1/CoREST3 expressed in Escherichia coli using monomethylatedH3meK4 peptide as substrate preincubated for 15 mins followed by substrate addition measured after 12 mins by fluorescence based assay
Assay [7] deals with T3, Histone deacetylase (Homo sapiens) (UniProt Q13547+O15379+Q9UBN7+Q92769+Q9UQL6+Q8WUI4+Q9BY41+Q96DB2+P56524+Q9UKV0+Q969S8). Nature of the assay: Inhibition of HDAC in human MCF7 cell nuclear extract using acetylated lysine as substrate at 17 uM after 1 hr by colorimetric analysis relative to control. In kind it is protein assay.
The test system of assay [8] is MCF7. Description: cells. In kind it is functional, cell-based. The settings on record: Homo sapiens, MCF7, 24 h.
Description: Cytotoxic activity against human MCF7 cells after 24 hrs by MTT assay
Assay [9] addresses T3, Histone deacetylase (Homo sapiens). Description: Inhibition of HDAC in human MCF7 cell nuclear extract using acetylated lysine as substrate at 70 uM after 1 hr by colorimetric analysis relative to control. In kind it is protein assay.
For assay [10], the target named is T2, Lysine-specific histone demethylase 1A/REST corepressor. The source holds these as a separate data set.
Description: as §2
In assay [11] the target is T1, HDAC1/REST corepressor 3. This is another data set of the same source.
Description: as §1

T1 sequence (Q13547 whole entry, other chains not shown): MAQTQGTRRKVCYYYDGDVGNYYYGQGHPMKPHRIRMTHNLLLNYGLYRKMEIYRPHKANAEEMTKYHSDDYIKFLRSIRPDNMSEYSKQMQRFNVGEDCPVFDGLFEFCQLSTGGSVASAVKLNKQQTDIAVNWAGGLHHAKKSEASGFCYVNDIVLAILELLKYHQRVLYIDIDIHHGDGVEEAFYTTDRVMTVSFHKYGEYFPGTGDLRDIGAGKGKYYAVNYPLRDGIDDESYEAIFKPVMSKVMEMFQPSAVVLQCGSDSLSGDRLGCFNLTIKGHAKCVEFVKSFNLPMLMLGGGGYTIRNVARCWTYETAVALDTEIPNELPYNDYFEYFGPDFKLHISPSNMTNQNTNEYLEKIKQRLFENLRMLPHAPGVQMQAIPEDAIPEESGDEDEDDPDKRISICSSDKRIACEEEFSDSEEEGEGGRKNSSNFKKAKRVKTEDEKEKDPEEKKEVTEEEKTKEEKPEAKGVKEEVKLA

Turning to `O=C(CCCCCCC(=O)Nc1ccccc1)NO` [VORINOSTAT], the Activity with MCF7 [1] worked out at 56.6%; with MCF7 [2], 20.8%; with MCF7 [3] it was 49.3%.

Broadly, the pKi is −log10 of the Ki, conventionally taken in molar units. A lower pKi goes with a large Ki. Usually pIC50 stands for the IC50 on a negative log10 scale, so that one unit is a factor of ten. By inhibition is commonly meant the drop in the measured response relative to a control, in per cent. The low end stands for a response near the control, the high end for a response far below the control. `Cl.Cl.Cl.N[C@@H]1C[C@H]1c1ccc(NC(=O)CCC(=O)NCCCNCCCCNCCCNC(=O)c2ccc(NC(=O)CCCCCCC(=O)NO)cc2)cc1`: the values for the Activity in the assay with MCF7 [1], in the assay with MCF7 [4] and in the assay on MCF7 [2] were 68.6%, 52.7% and 16.3%, respectively. For the same compound, the negative logarithm of the Ki (pKi) at HDAC1/REST corepressor 3 [5] was 7.37. Further, the pIC50 in assay [6] was 5.41; in the assay on MCF7 [8], 4.40. In [7], the inhibition was found to be 50.2%.

As to `Cl.Cl.N[C@@H]1C[C@H]1c1ccc(NC(=O)CCC(=O)NCCCNCCCNC(=O)c2ccc(NC(=O)CCCCCCC(=O)NO)cc2)cc1`, the Activity in the assay on MCF7 [1] is 52%. In assay [9], the inhibition came to 35.8%. Also, the pKi at HDAC1/REST corepressor 3 [5] is 7.57. Further, the values for the pIC50 (in assay [6]; in the assay with MCF7 [8]) were 5.62 and 4.22, respectively.

Turning to `Cl.Cl.Cl.N[C@@H]1C[C@H]1c1ccc(NC(=O)CCC(=O)NCCCCCCNCCCCCCCCNCCCCCCNC(=O)c2ccc(NC(=O)CCCCCCC(=O)NO)cc2)cc1`, in assay [10], the IC50 result is on record as “Nd(Insoluble)”. The Ki entry at HDAC1/REST corepressor 3 [11] is given as “Nd(Insoluble)”.
